Test results: patent US20220007651A1, “BACILLUS THURINGIENSIS STRAINS AND METHODS FOR CONTROLLING PESTS” (priority 2018, published 2022)

B1: Cry1Ia2: Cry toxin, SEQ ID NO: 9, expressed in Escherichia coli BL21, applied as whole broth (protein, listed as Bacillus thuringiensis)
chain: MKLKNQDKHQSFSSNAKVDKISTDSLKNETDIELQNINHEDCLKMSEYENVEPFVSASTIQTGIGIAGKILGTLGVPFAGQVASLYSFILGELWPKGKNQWEIFMEHVEEIINQKISTYARNKALTDLKGLGDALAVYHDSLESWVGNRNNTRARSVVKSQYIALELMFVQKLPSFAVSGEEVPLLPIYAQAANLHLLLLRDASIFGKEWGLSSSEISTFYNRQVERAGDYSDHCVKWYSTGLNNLRGTNAESWVRYNQFRRDMTLMVLDLVALFPSYDTQMYPIKTTAQLTREVYTDAIGTVHPHPSFTSTTWYNNNAPSFSAIEAAVVRNPHLLDFLEQVTIYSLLSRWSNTQYMNMWGGHKLEFRTIGGTLNISTQGSTNTSINPVTLPFTSRDVYRTESLAGLNLFLTQPVNGVPRVDFHWKFVTHPIASDNFYYPGYAGIGTQLQDSENELPPEATGQPNYESYSHRLSHIGLISASHVKALVYSWTHRSADRTNTIEPNSITQIPLVKAFNLSSGAAVVRGPGFTGGDILRRTNTGTFGDIRVNINPPFAQRYRVRIRYASTTDLQFHTSINGKAINQGNFSATMNRGEDLDYKTFRTVGFTTPFSFLDVQSTFTIGAWNFSSGNEVYIDRIEFVPVEVTYEAEYDFEKAQEKVTALFTSTNPRGLKTDVKDYHIDQVSNLVESLSDEFYLDEKRELFEIVKYAKQLHIERNM
B2: Cry2Ab1: Cry toxin, SEQ ID NO: 10, expressed in Escherichia coli BL21, applied as whole broth (protein, listed as Bacillus thuringiensis)
chain: MNSVLNSGRTTICDAYNVAAHDPFSFQHKSLDTVQKEWTEWKKNNHSLYLDPIVGTVASFLLKKVGSLVGKRILSELRNLIFPSGSTNLMQDILRETEKFLNQRLNTDTLARVNAELTGLQANVEEFNRQVDNFLNPNRNAVPLSITSSVNTMQQLFLNRLPQFQMQGYQLLLLPLFAQAANLHLSFIRDVILNADEWGISAATLRTYRDYLKNYTRDYSNYCINTYQSAFKGLNTRLHDMLEFRTYMFLNVFEYVSIWSLFKYQSLLVSSGANLYASGSGPQQTQSFTSQDWPFLYSLFQVNSNYVLNGFSGARLSNTFPNIVGLPGSTTTHALLAARVNYSGGISSGDIGASPFNQNFNCSTFLPPLLTPFVRSWLDSGSDREGVATVTNWQTESFETTLGLRSGAFTARGNSNYFPDYFIRNISGVPLVVRNEDLRRPLHYNEIRNIASPSGTPGGARAYMVSVHNRKNNIHAVHENGSMIHLAPNDYTGFTISPIHATQVNNQTRTFISEKFGNQGDSLRFEQNNTTARYTLRGNGNSYNLYLRVSSIGNSTIRVTINGRVYTATNVNTTTNNDGVNDNGARFSDINIGNVVASSNSDVPLDINVTLNSGTQFDLMNIMLVPTNISPLY

Columns and labels:
Lepidopteran pests = details: Broderick et al., 2000; cited from earlier work
[1] = tested on: Spodoptera exigua Hübner (beet armyworm); assay: Insecticidal assay, second instars on 48-well agar substrate plates; format: in vivo
Excerpt: Zwittermicin A was partially purified from a strain derived from Bacillus thuringiensis strain NRRL B-67688. After growing the strain in a soy-based medium, the whole broth was centrifuged and the supernatant removed. The supernatant was passed through a 3 kDa filter to separate the zwittermicin A from larger molecules including any Cry toxins. The Vip3Aa11 protein was produced in the expression strain of Escherichia coli BL21 and applied to insect larvae as the E. coli whole broth culture (WB) at concentrations of 0.1%, 1%, and 10%. Treatment groups included Vip3Aa11 only (“no Zwa”); Vip3Aa11 with zwittermicin A (“1×Zwa); and Vip3Aa11 with concentrated zwittermicin A (“2×Zwa”) containing twice as much zwittermicin. Concentrations of zwittermicin A and Vip3Aa11 were adjusted by adding deionized water to prepare the appropriate dilutions. Control treatments included zwittermicin A (“1×Zwa”) alone, concentrated zwittermicin A alone (“2×Zwa”), untreated control, and a positive control containing 1000 ppm of a commercially available biological control agent active against Lepidoptera.
To evaluate the insecticidal activity of each treatment, second instars of Spodoptera exigua Hυbner (beet armyworm) were grown on 48-well plates containing an agar substrate similar to that described in Marrone et al., (1985), “Improvements in Laboratory Rearing of the Southern Corn Rootworm, Diabrotica undecimpuncta howardi Barber (Coleoptera: Chrysomelidae), on an Artificial Diet and Corn,” J. Econ. Entomol. 78: 290-293. Each treatment was applied to the agar substrate and a second instar was then placed in the well. After several days, insect development and survival were evaluated. Insect development scores were rated according to the following scale: 1=severely stunted; 2=highly stunted, minimal growth; 3=slightly smaller than untreated control; 4=same size as untreated control. […]
The experiment conducted in Example 3 was repeated with Cry1Ab1, Cry1Ia2, or Cry2Ab1 expressed in Escherichia coli BL21 and applied to insect larvae as the E. coli whole broth culture (WB) at concentrations of 0.2%, 4%, 10%, and 50%. The insect mortality score is based on the following scale: 4=0-25% mortality, 3=26-50% mortality, 2=51-79% mortality, 1=80-100% mortality. All percentages are adjusted according to any mortality observed with untreated control Spodoptera exigua Hυbner (beet armyworm) larvae. […] All reported mortality scores are the average of three replicate measurements.
The experiment in Example 3 was also repeated with Cry1Ca1 and Cry1Da1, which were expressed in Escherichia coli BL21 and applied to insect larvae as the E. coli whole broth culture (WB) at various concentrations. Instead of insect mortality rates, LC50, which in this case is the percentage of whole broth needed to cause 50% mortality, without zwittermicin or with various concentrations of zwittermicin, was determined.

[2] = Cry toxin applied alone, E. coli whole broth 0.2%, 4%, 10%, 50%
[3] = Cry toxin in combination with zwittermicin A (1×Zwa), FIGS. 4A-4C

Molecule	insect mortality [1, 2]	insect mortality [1, 3]	other results
NC(=O)NCC(NC(=O)[C@@H](O)[C@H](O)[C@H](N)C(O)CC(O)C(N)CO)C(N)=O (some centres unmarked) [zwittermicin A]	–	–	insecticidal activity on its own (Lepidopteran pests): little or no observable insecticidal activity; insect mortality ([1]; zwittermicin A alone, 1×Zwa): generally had no observable effect on insect mortality; insect mortality ([1]; zwittermicin alone at the concentrations used in the LC50 experiment): generally had no observable effect on insect mortality; effect on insect growth or survival ([1]; zwittermicin alone, 1×Zwa or 2×Zwa): no significant effect on insect growth or survival
Cry1Ab1: Cry toxin expressed in Escherichia coli BL21, applied as whole broth	demonstrated insect mortality at the higher application rates	significant increase in insect mortality	–
Cry1Da1: Cry toxin, SEQ ID NO: 17, expressed in Escherichia coli BL21, applied as whole broth	–	–	~LC50 ([1]; No Zwa): >10 percentage of whole broth
B1	little observable effect on insect mortality	significant increase in insect mortality	–
B2	demonstrated insect mortality at the higher application rates	significant increase in insect mortality	–
